Measurements reported in patent US11572590B2, “Methods for evaluating tumor cell spheroids using 3D microfluidic cell culture device” (Dana-Farber Cancer Institute, Inc., priority 2017, dated 2023).
Read-outs that look alike come from different tables or passages of the source.

Columns and labels:
Assay in all cases: SelectScreen Kinase Profiling, single point inhibition and IC50 for off-target kinases
Assay type in all cases: biochemical
off-target kinases [1] = target: off-target kinases (Homo sapiens, UniProt P00519, G250E); conditions: ABL1 G250E, ATP Km app, ZLYTE
off-target kinases [2] = target: off-target kinases (Homo sapiens, UniProt P04626)
Sequence of off-target kinases (Homo sapiens, UniProt P04626) (P04626 23-1255): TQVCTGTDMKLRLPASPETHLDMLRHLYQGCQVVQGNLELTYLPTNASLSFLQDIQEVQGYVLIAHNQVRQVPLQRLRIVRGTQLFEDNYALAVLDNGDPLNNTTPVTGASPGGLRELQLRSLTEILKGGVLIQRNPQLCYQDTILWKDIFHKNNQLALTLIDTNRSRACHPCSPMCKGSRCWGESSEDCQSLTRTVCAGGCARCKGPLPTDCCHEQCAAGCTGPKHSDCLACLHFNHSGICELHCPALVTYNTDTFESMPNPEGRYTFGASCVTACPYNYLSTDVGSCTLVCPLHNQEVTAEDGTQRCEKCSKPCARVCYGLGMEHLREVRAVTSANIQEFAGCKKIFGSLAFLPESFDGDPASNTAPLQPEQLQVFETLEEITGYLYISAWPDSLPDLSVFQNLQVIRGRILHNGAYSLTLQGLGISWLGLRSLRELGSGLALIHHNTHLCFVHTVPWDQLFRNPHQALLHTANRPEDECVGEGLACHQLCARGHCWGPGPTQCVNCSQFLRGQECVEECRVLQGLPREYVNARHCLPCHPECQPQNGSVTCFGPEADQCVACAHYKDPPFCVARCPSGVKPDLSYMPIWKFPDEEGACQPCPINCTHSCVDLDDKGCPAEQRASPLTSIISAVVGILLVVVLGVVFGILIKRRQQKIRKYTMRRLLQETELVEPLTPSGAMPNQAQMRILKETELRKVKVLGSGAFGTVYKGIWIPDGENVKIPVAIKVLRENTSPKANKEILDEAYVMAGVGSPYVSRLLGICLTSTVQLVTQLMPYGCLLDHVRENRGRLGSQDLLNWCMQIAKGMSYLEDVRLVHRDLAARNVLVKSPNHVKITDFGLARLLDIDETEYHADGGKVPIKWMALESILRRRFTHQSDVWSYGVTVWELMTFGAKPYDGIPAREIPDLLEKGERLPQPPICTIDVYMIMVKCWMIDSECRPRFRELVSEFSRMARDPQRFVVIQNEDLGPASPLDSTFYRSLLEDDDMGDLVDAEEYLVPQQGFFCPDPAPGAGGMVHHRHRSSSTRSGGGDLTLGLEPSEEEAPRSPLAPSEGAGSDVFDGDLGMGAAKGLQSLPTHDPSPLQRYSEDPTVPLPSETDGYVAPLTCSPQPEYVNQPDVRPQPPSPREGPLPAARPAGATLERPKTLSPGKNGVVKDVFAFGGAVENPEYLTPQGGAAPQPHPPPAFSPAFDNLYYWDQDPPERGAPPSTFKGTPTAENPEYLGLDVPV

off-target kinases [3] = target: T1, off-target kinases (Homo sapiens, UniProt P29323); conditions: EPHB2, ZLYTE, ATP Km app
T1 sequence (P29323 19-1055): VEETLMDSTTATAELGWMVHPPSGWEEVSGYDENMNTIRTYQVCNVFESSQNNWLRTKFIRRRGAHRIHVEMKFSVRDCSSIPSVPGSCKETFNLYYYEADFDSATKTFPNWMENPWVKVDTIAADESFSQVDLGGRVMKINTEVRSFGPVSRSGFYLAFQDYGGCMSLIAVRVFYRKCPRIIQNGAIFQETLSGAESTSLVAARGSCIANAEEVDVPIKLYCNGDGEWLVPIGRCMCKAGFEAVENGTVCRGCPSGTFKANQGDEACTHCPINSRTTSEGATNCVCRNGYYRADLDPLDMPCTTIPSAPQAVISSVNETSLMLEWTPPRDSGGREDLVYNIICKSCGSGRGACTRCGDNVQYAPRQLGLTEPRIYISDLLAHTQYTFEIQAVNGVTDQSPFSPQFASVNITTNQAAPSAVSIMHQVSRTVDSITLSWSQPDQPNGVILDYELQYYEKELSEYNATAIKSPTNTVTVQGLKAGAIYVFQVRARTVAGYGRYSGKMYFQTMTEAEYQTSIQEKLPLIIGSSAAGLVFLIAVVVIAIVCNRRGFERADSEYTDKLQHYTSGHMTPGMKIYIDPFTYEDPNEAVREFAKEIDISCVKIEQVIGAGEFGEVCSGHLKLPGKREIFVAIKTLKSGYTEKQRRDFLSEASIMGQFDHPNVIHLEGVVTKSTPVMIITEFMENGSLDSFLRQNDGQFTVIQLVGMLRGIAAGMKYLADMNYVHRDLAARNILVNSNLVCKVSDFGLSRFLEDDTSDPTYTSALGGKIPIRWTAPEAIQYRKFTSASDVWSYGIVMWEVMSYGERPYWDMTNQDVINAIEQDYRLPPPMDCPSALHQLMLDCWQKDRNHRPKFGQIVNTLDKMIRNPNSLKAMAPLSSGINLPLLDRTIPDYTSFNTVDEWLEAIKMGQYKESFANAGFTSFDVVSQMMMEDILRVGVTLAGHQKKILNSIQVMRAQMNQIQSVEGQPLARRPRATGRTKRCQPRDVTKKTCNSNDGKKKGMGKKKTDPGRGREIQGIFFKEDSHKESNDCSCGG

off-target kinases [4] = target: off-target kinases (Homo sapiens, UniProt P35968); conditions: KDR (VEGFR2), ATP Km app, ZLYTE
Sequence of off-target kinases (Homo sapiens, UniProt P35968) (P35968 20-1356): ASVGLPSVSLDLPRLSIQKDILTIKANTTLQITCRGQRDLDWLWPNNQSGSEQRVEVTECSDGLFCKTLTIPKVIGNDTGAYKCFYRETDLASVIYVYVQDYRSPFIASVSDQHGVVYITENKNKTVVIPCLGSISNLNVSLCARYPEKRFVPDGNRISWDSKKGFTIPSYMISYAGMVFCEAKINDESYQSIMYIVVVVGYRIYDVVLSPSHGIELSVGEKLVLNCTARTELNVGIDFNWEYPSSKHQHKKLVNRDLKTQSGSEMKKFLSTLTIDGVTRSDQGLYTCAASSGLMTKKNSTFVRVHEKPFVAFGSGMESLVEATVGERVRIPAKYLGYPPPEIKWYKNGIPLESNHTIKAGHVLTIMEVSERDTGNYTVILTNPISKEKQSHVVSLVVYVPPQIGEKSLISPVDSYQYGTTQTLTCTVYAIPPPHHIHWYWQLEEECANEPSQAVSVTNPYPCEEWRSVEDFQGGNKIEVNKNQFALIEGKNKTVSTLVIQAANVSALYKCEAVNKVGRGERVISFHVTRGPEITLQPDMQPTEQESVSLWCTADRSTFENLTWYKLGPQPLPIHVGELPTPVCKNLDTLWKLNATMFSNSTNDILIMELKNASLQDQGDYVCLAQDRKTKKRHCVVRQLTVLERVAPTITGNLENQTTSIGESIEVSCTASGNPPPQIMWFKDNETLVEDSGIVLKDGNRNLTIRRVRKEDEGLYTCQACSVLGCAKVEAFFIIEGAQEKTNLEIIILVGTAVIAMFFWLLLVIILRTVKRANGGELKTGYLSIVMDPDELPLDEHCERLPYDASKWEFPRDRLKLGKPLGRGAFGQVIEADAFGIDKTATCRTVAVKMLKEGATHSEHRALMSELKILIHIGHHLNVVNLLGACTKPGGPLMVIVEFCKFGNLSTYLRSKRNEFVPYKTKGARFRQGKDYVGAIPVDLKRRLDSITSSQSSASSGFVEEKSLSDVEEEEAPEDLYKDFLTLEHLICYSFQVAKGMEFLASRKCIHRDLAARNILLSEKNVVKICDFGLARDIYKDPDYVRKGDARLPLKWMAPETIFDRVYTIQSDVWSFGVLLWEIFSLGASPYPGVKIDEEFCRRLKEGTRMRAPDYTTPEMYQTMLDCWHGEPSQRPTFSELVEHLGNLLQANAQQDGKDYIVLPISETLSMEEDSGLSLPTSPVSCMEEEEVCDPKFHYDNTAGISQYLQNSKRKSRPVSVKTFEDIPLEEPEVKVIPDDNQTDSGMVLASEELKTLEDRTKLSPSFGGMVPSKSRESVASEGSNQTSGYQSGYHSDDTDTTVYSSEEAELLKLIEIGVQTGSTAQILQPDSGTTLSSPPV

off-target kinases [5] = target: off-target kinases (Homo sapiens, UniProt P78368); conditions: CSNK1G2 (CK1 gamma 2); Cmpd1 1000 μM; ATP Km app; ZLYTE
Sequence of off-target kinases (Homo sapiens, UniProt P78368) (P78368 whole entry): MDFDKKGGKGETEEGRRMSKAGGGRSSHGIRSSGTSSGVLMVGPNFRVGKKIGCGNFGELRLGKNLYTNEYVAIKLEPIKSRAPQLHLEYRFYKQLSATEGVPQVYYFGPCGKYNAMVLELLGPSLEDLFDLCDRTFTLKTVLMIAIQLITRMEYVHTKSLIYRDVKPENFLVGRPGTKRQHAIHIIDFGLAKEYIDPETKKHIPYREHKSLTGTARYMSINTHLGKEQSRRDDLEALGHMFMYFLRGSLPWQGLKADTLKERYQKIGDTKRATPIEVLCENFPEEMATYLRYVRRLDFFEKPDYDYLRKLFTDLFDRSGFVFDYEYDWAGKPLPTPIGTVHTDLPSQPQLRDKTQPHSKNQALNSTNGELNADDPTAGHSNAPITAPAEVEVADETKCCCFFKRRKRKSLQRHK

off-target kinases [6] = target: off-target kinases (Homo sapiens, UniProt Q13177); conditions: PAK2 (PAK65), ZLYTE, ATP Km app
Sequence of off-target kinases (Homo sapiens, UniProt Q13177) (Q13177 whole entry): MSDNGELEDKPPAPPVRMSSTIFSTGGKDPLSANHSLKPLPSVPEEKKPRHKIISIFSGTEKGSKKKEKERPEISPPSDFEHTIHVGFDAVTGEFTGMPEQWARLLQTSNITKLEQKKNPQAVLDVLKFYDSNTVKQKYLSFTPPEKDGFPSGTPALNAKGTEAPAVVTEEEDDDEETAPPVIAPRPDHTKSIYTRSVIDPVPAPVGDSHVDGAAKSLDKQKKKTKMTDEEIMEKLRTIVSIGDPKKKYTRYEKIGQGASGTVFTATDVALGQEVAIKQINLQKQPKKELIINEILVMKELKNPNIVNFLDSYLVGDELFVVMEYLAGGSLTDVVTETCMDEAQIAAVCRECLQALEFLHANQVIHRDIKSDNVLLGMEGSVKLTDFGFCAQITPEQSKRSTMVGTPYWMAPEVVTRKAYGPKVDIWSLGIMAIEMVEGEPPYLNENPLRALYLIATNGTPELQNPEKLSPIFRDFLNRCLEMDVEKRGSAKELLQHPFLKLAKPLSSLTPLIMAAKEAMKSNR

off-target kinases [7] = target: off-target kinases (Homo sapiens, UniProt Q8N568); conditions: DCAMKL2 (DCK2), ZLYTE, ATP Km app
Sequence of off-target kinases (Homo sapiens, UniProt Q8N568) (Q8N568 whole entry): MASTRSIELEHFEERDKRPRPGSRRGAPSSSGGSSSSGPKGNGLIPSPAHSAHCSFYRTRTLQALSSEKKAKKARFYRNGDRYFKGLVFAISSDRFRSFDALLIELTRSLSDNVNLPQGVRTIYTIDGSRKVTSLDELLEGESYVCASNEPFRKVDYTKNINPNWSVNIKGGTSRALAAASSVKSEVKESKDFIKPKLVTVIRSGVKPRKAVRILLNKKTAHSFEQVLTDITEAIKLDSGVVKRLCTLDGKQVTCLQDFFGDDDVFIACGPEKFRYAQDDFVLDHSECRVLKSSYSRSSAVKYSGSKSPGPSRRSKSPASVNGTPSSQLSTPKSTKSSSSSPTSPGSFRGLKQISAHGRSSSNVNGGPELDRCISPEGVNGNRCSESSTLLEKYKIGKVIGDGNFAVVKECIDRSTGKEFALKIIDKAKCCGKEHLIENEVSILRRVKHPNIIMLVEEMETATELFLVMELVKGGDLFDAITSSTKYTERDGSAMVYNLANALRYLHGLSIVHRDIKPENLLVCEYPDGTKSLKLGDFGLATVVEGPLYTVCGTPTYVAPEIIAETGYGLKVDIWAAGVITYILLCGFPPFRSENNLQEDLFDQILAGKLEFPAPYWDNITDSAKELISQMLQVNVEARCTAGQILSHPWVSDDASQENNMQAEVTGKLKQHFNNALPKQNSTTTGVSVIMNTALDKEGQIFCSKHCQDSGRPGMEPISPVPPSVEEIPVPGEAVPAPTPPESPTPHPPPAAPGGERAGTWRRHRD

N#Cc1cc(-c2ncnc(Nc3ccc(N4CCN(C5COC5)CC4)cc3)n2)ccc1OC1CCOCC1 [Compound 1, 5-(4-((4-(4-(oxetan-3-yl)piperazin-1-yl)phenyl)amino)-1,3,5-triazin-2-yl)-2-((tetrahydro-2H-pyran-4-yl)oxy)benzonitrile]
inhibition (off-target kinases [1]; read-out: % Inhibition 1): 60%
inhibition (off-target kinases [1]; read-out: % Inhibition 2): 61%
inhibition (off-target kinases [1]; read-out: % Inhibition Avg): 60%
inhibition (off-target kinases [2]; ERBB2 (HER2), ZLYTE, ATP Km app, read-out: % Inhibition 1): 0%
inhibition (off-target kinases [2]; ERBB2 (HER2), ZLYTE, ATP Km app, read-out: % Inhibition 2): -3%
inhibition (off-target kinases [2]; read-out: % Inhibition Avg): -1%
inhibition (off-target kinases [3]; read-out: % Inhibition 1): 14%
inhibition (off-target kinases [3]; read-out: % Inhibition 2): 17%
inhibition (off-target kinases [3]; read-out: % Inhibition Avg): 16%
inhibition (off-target kinases [4]; read-out: % Inhibition 1): 51%
inhibition (off-target kinases [4]; read-out: % Inhibition 2): 53%
inhibition (off-target kinases [4]; read-out: % Inhibition Avg): 52%
% Inhibition 1 (off-target kinases [5]): −7%
% Inhibition 2 (off-target kinases [5]): −16%
% Inhibition Avg (off-target kinases [5]): −11%
inhibition (off-target kinases [6]; read-out: % Inhibition 1): 6%
inhibition (off-target kinases [6]; read-out: % Inhibition 2): -1%
inhibition (off-target kinases [6]; read-out: % Inhibition Avg): 3%
inhibition (off-target kinases [7]; read-out: % Inhibition 1): 11%
inhibition (off-target kinases [7]; read-out: % Inhibition 2): 3%
inhibition (off-target kinases [7]; read-out: % Inhibition Avg): 7%
